The values below come from patent US12054463B2, “Radiolabeled microtubule imaging compounds and uses thereof” (The Trustees of Columbia University in the City of New York, priority 2017, dated 2024).

For one series, the target named is GABA. In words: Affinity to brain targets (panel). The class given is binding.
In another series the target is EP. The series can be described thus: Affinity to brain targets (panel). It counts as binding. The settings on record: EP: prostanoid receptors.
Another series has as its target AMPA. In words: Affinity to brain targets (panel). The class given is binding.
The next series concerns the target NOP (Homo sapiens, UniProt P41146). In words: Affinity to brain targets (panel). The class given is binding.
The target of another series is mGluR. The series can be described thus: Affinity to brain targets (panel). It counts as binding. The conditions noted are these: mGluR (mGluRs): metabotropic glutamate receptors.
The next series concerns the target Ca++ channel. The series can be described thus: Affinity to brain targets (panel). The class given is binding.
In the next series the target is VMAT. In words: Affinity to brain targets (panel). It counts as binding. The conditions noted are these: VMAT (VMAT 1,2): vesicular monoamine transporter.
The target of another series is PBR (Homo sapiens, UniProt P30536). The series can be described thus: Affinity to brain targets (panel). The class given is binding.
Another series concerns the target Adenosine. In words: Affinity to brain targets (panel). The class given is binding. The conditions noted are these: Adenosine (A).
The next series concerns the target NET (Homo sapiens, UniProt P23975). The series can be described thus: Affinity to brain targets (panel). The class given is binding. The settings on record: NET: norepinephrine transporter.
A further series addresses DOR (Homo sapiens, UniProt P41143). The series can be described thus: Affinity to brain targets (panel). The class given is binding. The settings on record: DOR: delta opioid receptors.
In the next series the target is H2 (Homo sapiens, UniProt P25021). The series can be described thus: Affinity to brain targets (panel). It counts as binding. The conditions noted are these: H2: histamine.
For the next series, the target named is 5-HT1A-1E. The series can be described thus: Affinity to brain targets (panel). The class given is binding.
The target of another series is T1, Oxytocin (Homo sapiens, UniProt P30559).
T1 sequence (P30559 1-389): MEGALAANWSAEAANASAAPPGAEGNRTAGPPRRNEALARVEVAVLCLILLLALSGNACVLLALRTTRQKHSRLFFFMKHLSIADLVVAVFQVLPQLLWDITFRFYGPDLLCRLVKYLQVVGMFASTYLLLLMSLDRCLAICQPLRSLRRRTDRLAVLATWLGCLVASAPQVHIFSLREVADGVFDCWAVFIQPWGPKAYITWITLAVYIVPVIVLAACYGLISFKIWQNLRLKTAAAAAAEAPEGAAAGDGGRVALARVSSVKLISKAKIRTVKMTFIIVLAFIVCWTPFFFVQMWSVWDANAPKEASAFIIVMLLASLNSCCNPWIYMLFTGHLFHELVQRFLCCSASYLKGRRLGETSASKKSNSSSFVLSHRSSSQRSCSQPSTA
In words: Affinity to brain targets (panel). It counts as binding.

For another series, the target named is 5-HT2A-2C. The series can be described thus: Affinity to brain targets (panel). The class given is binding.
The target in another series is Smoothened (Homo sapiens, UniProt Q99835). The series can be described thus: Affinity to brain targets (panel). It counts as binding.
A further series deals with MDR1 (Homo sapiens, UniProt P08183). The series can be described thus: Affinity to brain targets (panel). The class given is binding. The settings on record: MDR1: multidrug resistance.
For a further series, the target named is α1A-1C. The series can be described thus: Affinity to brain targets (panel). The class given is binding.
The target of the next series is SERT (Homo sapiens, UniProt P31645). In words: Affinity to brain targets (panel). The class given is binding. The conditions noted are these: SERT: serotonin transporter.
A further series concerns the target NT. The series can be described thus: Affinity to brain targets (panel). The class given is binding. The conditions noted are these: NT: neurotrophin.
A further series deals with MOR (Homo sapiens, UniProt P35372). In words: Affinity to brain targets (panel). The class given is binding. The settings on record: MOR: mu opioid receptor.
The target of another series is CB1, CB2. The series can be described thus: Affinity to brain targets (panel). It counts as binding.
In a further series the target is PKC. In words: Affinity to brain targets (panel). It counts as binding. The conditions noted are these: PKC: Protein kinase C.
A further series addresses 5-HT3-7. The series can be described thus: Affinity to brain targets (panel). It counts as binding.
In a further series the target is NMDA. In words: Affinity to brain targets (panel). The class given is binding.
A further series has as its target D1-D5. The series can be described thus: Affinity to brain targets (panel). The class given is binding.
The target in another series is M. In words: Affinity to brain targets (panel). It counts as binding. The settings on record: M: muscarinic.
The target in a further series is β1-3. The series can be described thus: Affinity to brain targets (panel). It counts as binding.
A further series concerns the target Na+ Channel. In words: Affinity to brain targets (panel). It counts as binding.
In another series the target is KOR (Homo sapiens, UniProt P41145). The series can be described thus: Affinity to brain targets (panel). It counts as binding. The settings on record: KOR: kappa opioid receptors.
The next series concerns the target α2A-2C. The series can be described thus: Affinity to brain targets (panel). It counts as binding.
In the next series the target is HERG (Homo sapiens, UniProt Q12809). In words: Affinity to brain targets (panel). It counts as binding. The conditions noted are these: HERG: human ether-a-go-go.
The target in the next series is Sigma1 (Homo sapiens, UniProt Q99720). The series can be described thus: Affinity to brain targets (panel). The class given is binding.
Another series has as its target KA. In words: Affinity to brain targets (panel). The class given is binding. The settings on record: KA (KAR): Kainate.
In another series the target is Sigma2 (Homo sapiens, UniProt Q5BJF2). The series can be described thus: Affinity to brain targets (panel). It counts as binding. The conditions noted are these: Sigma2 (Sigma 2).
The target in the next series is H1 (Homo sapiens, UniProt P35367). In words: Affinity to brain targets (panel). The conditions noted are these: H1: histamine. The class given is binding.
For a further series, the target named is H3, H4. In words: Affinity to brain targets (panel). The class given is binding. The conditions noted are these: H3, H4: histamine.
For the next series, the target named is DAT (Homo sapiens, UniProt Q01959). In words: Affinity to brain targets (panel). It counts as binding. The settings on record: DAT: dopamine transporters.
The target of another series is NK. The series can be described thus: Affinity to brain targets (panel). The class given is binding. The settings on record: NK: neurokinin.
In another series the target is I. In words: Affinity to brain targets (panel). It counts as binding.
Another series concerns the target BZP. The series can be described thus: Affinity to brain targets (panel). The class given is binding. The conditions noted are these: BZP: benzodiazepine.
The next series relates to tumor xenografts. The settings on record: references 12-14; cited from earlier work.
The test system of another series is panel of kinases. The conditions noted are these: cited from earlier work.
For series [1] the following is noted: references 12-14; cited from earlier work.
In another series the test system is brain MTs. In words: MicroPET in mice brain. It counts as in vivo. The conditions noted are these: for BBB penetration and brain distribution: microPET, mice. As to the method:
Blocking with unlabeled MPC-6827 and HD-800 (5 mg/kg/i.v) 20 minute prior to radioligand administration indicates specific binding of radiotracer to brain MTs. […] Time activity curves (TACs) further confirm the washout of [^11C]HD-800 in mice brain and excellent specific binding with unlabeled HD-800 and MPC-6827 as blocking agents (FIG. 9).^23-24
The distribution pattern of [^18F]FEMPC-6827 in the mice brain is similar to that of [^11C]MPC-6827 and [^11C]HD-800.

Sigma1, sequence (Q99720 whole entry): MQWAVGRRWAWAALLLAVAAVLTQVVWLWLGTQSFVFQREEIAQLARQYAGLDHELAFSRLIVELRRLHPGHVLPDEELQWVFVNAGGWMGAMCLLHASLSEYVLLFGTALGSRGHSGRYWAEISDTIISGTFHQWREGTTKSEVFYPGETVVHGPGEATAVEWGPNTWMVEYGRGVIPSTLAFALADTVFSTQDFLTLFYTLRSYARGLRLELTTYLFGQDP
Sigma2, sequence (Q5BJF2 whole entry): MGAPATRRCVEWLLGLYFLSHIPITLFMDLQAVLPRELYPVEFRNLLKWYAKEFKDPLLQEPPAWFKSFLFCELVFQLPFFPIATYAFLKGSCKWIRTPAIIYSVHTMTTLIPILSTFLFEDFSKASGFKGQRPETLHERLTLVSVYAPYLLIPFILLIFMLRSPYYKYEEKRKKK
Smoothened, sequence (Q99835 28-787): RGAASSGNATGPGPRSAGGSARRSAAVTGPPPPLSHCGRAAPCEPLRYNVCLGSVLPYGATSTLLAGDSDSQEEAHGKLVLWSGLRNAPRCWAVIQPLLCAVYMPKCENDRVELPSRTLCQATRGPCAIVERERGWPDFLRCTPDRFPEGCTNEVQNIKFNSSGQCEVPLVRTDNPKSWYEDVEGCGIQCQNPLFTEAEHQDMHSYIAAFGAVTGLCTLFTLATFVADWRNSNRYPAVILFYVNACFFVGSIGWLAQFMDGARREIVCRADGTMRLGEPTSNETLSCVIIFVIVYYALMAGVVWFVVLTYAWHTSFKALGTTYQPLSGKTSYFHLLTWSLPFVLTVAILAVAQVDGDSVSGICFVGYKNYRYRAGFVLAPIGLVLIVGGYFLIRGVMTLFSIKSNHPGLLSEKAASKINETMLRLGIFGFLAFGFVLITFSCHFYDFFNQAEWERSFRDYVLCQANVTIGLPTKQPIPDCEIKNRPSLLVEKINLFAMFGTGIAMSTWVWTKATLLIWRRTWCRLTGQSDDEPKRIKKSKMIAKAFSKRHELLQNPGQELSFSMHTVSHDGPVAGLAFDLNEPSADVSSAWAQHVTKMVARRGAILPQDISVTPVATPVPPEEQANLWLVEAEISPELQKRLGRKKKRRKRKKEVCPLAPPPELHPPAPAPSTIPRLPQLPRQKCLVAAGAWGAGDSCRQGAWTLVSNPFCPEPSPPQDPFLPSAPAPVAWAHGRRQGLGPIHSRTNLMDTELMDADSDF
MOR, sequence (P35372 whole entry): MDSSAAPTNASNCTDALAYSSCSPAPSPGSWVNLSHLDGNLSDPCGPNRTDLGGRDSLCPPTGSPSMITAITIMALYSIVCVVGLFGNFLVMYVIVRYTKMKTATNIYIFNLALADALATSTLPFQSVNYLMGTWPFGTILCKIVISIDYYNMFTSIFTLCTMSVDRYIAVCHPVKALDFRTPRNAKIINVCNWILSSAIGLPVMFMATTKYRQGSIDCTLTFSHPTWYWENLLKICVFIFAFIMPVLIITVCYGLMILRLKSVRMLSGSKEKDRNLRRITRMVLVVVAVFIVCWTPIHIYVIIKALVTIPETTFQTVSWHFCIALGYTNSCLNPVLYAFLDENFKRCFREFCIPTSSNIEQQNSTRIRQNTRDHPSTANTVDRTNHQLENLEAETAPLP
PBR, sequence (P30536 whole entry, species assumed): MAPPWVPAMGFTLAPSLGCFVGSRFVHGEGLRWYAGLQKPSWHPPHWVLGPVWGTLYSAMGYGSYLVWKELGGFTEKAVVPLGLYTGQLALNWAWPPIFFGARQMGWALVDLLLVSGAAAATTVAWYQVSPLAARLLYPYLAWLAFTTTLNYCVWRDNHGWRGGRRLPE
KOR, sequence (P41145 whole entry): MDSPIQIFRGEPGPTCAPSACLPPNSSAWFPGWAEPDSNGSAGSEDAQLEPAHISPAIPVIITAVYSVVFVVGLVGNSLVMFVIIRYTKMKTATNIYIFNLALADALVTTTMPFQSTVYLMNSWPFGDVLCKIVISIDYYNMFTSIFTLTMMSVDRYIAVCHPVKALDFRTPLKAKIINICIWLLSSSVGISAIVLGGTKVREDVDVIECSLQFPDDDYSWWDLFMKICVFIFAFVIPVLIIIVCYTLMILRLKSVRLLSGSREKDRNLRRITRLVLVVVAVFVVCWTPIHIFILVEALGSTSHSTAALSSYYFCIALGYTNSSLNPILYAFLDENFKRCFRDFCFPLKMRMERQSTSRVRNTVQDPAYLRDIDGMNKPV
H1, sequence (P35367 whole entry): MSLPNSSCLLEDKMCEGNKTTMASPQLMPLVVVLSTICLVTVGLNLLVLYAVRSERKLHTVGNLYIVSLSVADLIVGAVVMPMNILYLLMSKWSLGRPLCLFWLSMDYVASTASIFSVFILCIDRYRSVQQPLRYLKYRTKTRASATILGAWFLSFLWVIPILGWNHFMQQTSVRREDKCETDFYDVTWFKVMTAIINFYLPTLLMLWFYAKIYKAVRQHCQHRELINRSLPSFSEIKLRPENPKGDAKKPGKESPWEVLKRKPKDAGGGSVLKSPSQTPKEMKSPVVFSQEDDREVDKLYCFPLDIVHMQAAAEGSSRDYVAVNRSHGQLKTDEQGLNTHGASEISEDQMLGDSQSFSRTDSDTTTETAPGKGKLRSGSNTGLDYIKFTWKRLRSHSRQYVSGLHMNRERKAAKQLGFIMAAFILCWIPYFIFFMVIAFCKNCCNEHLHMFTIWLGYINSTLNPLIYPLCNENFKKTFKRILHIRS
DOR, sequence (P41143 whole entry): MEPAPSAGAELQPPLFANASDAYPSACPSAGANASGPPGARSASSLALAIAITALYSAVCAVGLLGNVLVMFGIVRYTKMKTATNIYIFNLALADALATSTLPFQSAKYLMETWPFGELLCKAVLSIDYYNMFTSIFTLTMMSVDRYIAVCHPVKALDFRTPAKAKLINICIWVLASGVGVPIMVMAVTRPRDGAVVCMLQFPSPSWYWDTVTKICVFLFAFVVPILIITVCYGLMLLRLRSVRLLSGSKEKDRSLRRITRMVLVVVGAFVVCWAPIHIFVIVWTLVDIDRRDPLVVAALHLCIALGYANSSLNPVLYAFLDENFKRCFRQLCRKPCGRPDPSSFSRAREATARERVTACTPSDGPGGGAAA
DAT, sequence (Q01959 whole entry, species assumed): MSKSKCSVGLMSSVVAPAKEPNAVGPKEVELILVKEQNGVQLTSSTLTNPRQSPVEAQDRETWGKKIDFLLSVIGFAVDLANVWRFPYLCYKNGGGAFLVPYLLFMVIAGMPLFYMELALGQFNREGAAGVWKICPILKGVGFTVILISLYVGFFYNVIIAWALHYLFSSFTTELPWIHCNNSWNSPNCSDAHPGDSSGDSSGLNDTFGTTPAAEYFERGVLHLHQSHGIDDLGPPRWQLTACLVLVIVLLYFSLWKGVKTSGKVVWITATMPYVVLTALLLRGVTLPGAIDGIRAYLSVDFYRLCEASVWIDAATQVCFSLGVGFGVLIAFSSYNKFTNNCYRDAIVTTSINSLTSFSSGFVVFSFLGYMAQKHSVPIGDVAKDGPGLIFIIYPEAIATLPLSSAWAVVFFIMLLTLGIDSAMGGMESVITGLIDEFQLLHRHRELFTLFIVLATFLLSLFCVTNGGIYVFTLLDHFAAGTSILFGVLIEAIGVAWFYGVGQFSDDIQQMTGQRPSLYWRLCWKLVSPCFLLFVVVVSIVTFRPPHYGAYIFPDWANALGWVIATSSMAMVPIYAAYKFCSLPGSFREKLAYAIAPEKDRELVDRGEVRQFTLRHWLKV
NET, sequence (P23975 whole entry): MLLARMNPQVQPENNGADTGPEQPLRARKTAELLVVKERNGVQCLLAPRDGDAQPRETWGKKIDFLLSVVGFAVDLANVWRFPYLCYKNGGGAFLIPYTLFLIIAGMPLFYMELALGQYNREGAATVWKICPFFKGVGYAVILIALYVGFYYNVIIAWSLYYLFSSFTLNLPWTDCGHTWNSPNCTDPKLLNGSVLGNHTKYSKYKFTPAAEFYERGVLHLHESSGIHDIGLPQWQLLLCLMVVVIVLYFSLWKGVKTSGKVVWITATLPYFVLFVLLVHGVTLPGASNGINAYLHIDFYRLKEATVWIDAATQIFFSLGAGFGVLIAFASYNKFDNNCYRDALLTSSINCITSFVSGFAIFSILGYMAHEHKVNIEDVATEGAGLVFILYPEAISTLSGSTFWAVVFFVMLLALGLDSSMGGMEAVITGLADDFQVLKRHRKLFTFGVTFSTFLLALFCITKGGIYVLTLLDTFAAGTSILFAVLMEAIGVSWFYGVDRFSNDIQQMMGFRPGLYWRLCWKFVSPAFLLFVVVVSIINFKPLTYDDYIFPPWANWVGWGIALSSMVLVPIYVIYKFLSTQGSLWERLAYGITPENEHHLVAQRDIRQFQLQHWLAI
H2, sequence (P25021 whole entry): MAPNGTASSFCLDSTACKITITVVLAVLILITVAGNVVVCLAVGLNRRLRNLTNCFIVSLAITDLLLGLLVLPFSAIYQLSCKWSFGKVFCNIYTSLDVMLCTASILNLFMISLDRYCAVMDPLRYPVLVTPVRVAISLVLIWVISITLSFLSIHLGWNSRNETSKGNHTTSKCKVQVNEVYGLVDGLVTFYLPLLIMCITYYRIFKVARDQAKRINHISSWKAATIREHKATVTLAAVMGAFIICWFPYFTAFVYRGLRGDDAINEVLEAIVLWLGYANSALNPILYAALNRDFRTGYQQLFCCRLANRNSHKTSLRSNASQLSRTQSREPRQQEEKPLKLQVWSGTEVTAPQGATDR
NOP, sequence (P41146 whole entry): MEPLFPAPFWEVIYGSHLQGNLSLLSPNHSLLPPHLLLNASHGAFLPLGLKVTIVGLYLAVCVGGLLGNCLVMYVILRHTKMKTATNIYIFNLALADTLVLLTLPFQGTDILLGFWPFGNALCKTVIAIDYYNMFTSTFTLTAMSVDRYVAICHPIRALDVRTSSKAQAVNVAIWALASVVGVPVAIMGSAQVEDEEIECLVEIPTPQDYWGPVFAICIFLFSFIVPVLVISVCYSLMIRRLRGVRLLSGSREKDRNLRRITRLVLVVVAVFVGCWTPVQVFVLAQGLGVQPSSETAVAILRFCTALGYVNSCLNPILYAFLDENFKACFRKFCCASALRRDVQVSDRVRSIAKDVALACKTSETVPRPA

For the compound `Cc1nc(N(C)c2ccc(OCCF)cc2)c2c(C)coc2n1` [FE-HD-800], the Ki on GABA, at EP, on AMPA, at NOP, on mGluR and on Ca++ channel was greater than 10 µM in each case. Moreover, the Ki at VMAT, at PBR, at Adenosine, at NET, on DOR and on H2 was greater than 10 µM throughout. In addition, the Ki on 5-HT1A-1E, at Oxytocin, at 5-HT2A-2C, on Smoothened, at MDR1 and on α1A-1C was greater than 10 µM each time. Besides, the Ki is greater than 10 µM at SERT; greater than 10 µM on NT; greater than 10 µM on MOR; greater than 10 µM at CB1, CB2; greater than 10 µM on PKC; greater than 10 µM at 5-HT3-7. Besides, the Ki at NMDA, on D1-D5, at M, on β1-3, on Na+ Channel and at KOR was greater than 10 µM in each case. The Ki at α2A-2C is greater than 10 µM; on HERG it was greater than 10 µM; at Sigma1, 0.832 µM; on KA it was greater than 10 µM; on Sigma2, 2.46 µM; on H1 it was 3.37 µM. Also, the Ki on H3, H4 is greater than 10 µM; on DAT it was greater than 10 µM; at NK, greater than 10 µM; at I it was greater than 10 µM; on BZP, greater than 10 µM.

As to `Cc1nc(N(C)c2ccc(OCCF)cc2)c2ccccc2n1` [FEMPC-6827], the Ki at GABA, on EP, at AMPA, on NOP, on mGluR and at Ca++ channel was greater than 10 µM in each case. The inhibitory constant (Ki) on VMAT is greater than 10 µM; at PBR, 1.59 µM; on Adenosine, greater than 10 µM; on NET it was greater than 10 µM; on DOR it was greater than 10 µM; at H2 it was 2.31 µM. Also, the Ki on 5-HT1A-1E, at Oxytocin, at 5-HT2A-2C, at Smoothened, on MDR1 and at α1A-1C was greater than 10 µM each time. Also, the Ki is greater than 10 µM at SERT; greater than 10 µM on NT; greater than 10 µM at MOR; greater than 10 µM on CB1, CB2; greater than 10 µM on PKC; greater than 10 µM at 5-HT3-7. Moreover, the inhibition constant (Ki) at NMDA, on D1-D5, on M, at β1-3, on Na+ Channel and on KOR was greater than 10 µM throughout. Also, the inhibitory constant (Ki) was greater than 10 µM at α2A-2C; greater than 10 µM at HERG; 0.051 µM at Sigma1; greater than 10 µM at KA; 2.46 µM at Sigma2; 0.305 µM on H1. The Ki at H3, H4 was greater than 10 µM; on DAT, greater than 10 µM; on NK, greater than 10 µM; on I, greater than 10 µM; on BZP, greater than 10 µM.

On to `COc1ccc2c(c1)NC(=O)CN2c1nc(C)nc2ccccc12` [WX-132-18B, 7-Methoxy-4-(2-methylquinazolin-4-yl)-3,4-dihydroquinoxalin-2(1H)-one], for which, in the series with tumor xenografts, the “tumor growth inhibition (TGI) compared with paclitaxel” value is “higher tumor growth inhibition (TGI) than paclitaxel”. Also, in the series with panel of kinases, the “binding to a panel / variety of kinases” value is “selective”. For the same compound, the BBB penetration result in [1] is given as “BBB penetrant”.

For `Cc1coc2ncnc(N(C)c3ccc(O[11CH3])cc3)c12` [[^11C]HD-800], in the series on brain MTs, the “BBB penetration and brain distribution” value was “penetrated the BBB followed by a homogeneous distribution in the mouse brain”. Further, the “blocking of brain activity” value with brain MTs (unlabeled MPC-6827 and HD-800 (5 mg/kg/i.v) 20 minute prior to radioligand) was “significant decreasing activity”.

As for `Cc1nc(N(C)c2ccc(OCC[18F])cc2)c2ccccc2n1` [[^18F]FEMPC-6827], the “BBB penetration and brain distribution” value in the series with brain MTs was “blood brain barrier penetration and accumulation in the brain”.

By Ki is commonly meant the equilibrium dissociation constant of an inhibitor or competing ligand from its target. A lower Ki goes with tighter binding.
